{"source": "ChEMBL document CHEMBL2439980", "about": "“Discovery of (S,E)-3-(2-fluorophenyl)-N-(1-(3-(pyridin-3-yloxy)phenyl)ethyl)-acrylamide as a potent and efficacious KCNQ2 (Kv7.2) opener for the treatment of neuropathic pain” (Bioorg Med Chem Lett, 2013)", "key": {"Rattus norvegicus [1]": {"tested_on": "Rattus norvegicus", "assay": "Analgesic activity in rat assessed reduction formalin-induced second phase pain response at 100 mg/kg, iv administered 8 mins post formalin challenge", "format": "functional, organism-based", "design": "dose 100 mg/kg"}, "Rattus norvegicus [2]": {"tested_on": "Rattus norvegicus", "assay": "Analgesic activity in rat assessed reduction formalin-induced initial pain response at 100 mg/kg, iv administered 2 mins before formalin challenge", "format": "functional, organism-based", "design": "dose 100 mg/kg"}, "Rattus norvegicus [3]": {"tested_on": "Rattus norvegicus", "assay": "Analgesic activity in Sprague-Dawley rat L5/L6 spinal nerve injury Chung model of neuropathic pain assessed as […] hair-induced paw withdrawal threshold at 100 mg/kg, iv measured after 15 to 90 mins relative to vehicle-treated control", "format": "functional, organism-based", "design": "dose 100 mg/kg"}, "[4]": {"target": "Potassium voltage-gated channel subfamily KQT member 2 (Mus musculus) (UniProt Q9Z351)", "sequence (Q9Z351 whole entry)": "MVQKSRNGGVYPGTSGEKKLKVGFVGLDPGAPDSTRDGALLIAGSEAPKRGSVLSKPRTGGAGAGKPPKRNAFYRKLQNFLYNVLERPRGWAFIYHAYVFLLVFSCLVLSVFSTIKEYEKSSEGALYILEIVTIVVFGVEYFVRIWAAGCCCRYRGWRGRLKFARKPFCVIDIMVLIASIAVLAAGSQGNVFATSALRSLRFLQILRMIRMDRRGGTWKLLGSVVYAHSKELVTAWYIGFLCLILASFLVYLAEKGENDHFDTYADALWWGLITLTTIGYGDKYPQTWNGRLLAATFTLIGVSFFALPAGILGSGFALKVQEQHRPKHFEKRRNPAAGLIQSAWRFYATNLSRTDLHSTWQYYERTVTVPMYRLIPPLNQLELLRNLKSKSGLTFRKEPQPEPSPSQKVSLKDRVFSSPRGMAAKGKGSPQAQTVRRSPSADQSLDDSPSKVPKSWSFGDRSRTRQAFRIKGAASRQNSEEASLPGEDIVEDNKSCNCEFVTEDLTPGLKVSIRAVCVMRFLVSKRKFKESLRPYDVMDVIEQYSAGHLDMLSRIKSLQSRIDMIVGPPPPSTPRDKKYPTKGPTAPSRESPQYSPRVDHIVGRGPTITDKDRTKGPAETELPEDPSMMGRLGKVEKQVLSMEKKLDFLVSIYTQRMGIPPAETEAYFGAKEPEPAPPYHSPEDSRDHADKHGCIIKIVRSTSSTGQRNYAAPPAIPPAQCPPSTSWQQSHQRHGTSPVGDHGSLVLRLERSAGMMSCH", "assay": "Induction of mouse KCNQ2 expressed in HEK293 cells at -40 mV holding potential by whole-cell patch clamp assay relative to (+/-)-N-(1-(benzo[d][1,3]dioxol-5-yl)ethyl)-3-(2-chlorophenyl)acrylamide", "format": "cell-based"}, "[5]": {"target": "Potassium voltage-gated channel subfamily KQT member 2 (Mus musculus, UniProt Q9Z351)", "sequence (Q9Z351 whole entry)": "as above", "assay": "Induction of mouse KCNQ2 expressed in HEK293 cells at -40 mV holding potential by whole-cell patch clamp assay", "format": "cell-based"}, "Rattus norvegicus [6]": {"tested_on": "Rattus norvegicus", "assay": "Toxicity in Sprague-Dawley rat assessed as […] at 10 mg/kg, iv after 10 mins by rotorod test", "format": "organism-based", "design": "dose 10 mg/kg, route intravenous", "details": "in vivo"}, "Rattus norvegicus [7]": {"tested_on": "Rattus norvegicus", "assay": "Analgesic activity in rat assessed reduction formalin-induced second phase pain response at 10 mg/kg, iv administered 8 mins post formalin challenge", "format": "functional, organism-based", "design": "dose 10 mg/kg"}, "Rattus norvegicus [8]": {"tested_on": "Rattus norvegicus", "assay": "Analgesic activity in rat assessed reduction formalin-induced initial pain response at 10 mg/kg, iv administered 2 mins before formalin challenge", "format": "functional, organism-based", "design": "dose 10 mg/kg"}, "Rattus norvegicus [9]": {"tested_on": "Rattus norvegicus", "assay": "Analgesic activity in STZ-induced diabetic neuropathy rat model assessed as prolongation of reversal of hypersensitivity time at 3 mg/kg, iv measured after 15 to 90 mins relative to vehicle-treated control", "format": "functional"}, "[10]": {"assay": "Drug uptake in Sprague-Dawley rat brain at 1 mg/kg, iv measured after 1 hr", "format": "ADME, organism-based", "design": "dose 1 mg/kg, route intravenous", "details": "read-out: Drug uptake"}, "[11]": {"assay": "Drug uptake in Sprague-Dawley rat brain at 1 mg/kg, iv measured after 15 mins", "format": "ADME, organism-based", "design": "dose 1 mg/kg, route intravenous", "details": "read-out: Drug uptake"}, "Rattus norvegicus [12]": {"tested_on": "Rattus norvegicus", "assay": "Analgesic activity in Sprague-Dawley rat L5/L6 spinal nerve injury Chung model of neuropathic pain assessed as […] hair-induced paw withdrawal threshold at 3 mg/kg, iv measured after 15 to 90 mins relative to vehicle-treated control", "format": "functional, organism-based", "design": "dose 3 mg/kg"}, "Rattus norvegicus [13]": {"tested_on": "Rattus norvegicus", "assay": "Analgesic activity in Sprague-Dawley rat L5/L6 spinal nerve injury Chung model of neuropathic pain assessed as […] hair-induced paw withdrawal threshold at 10 mg/kg, iv measured after 15 mins relative to vehicle-treated control", "format": "functional, organism-based", "design": "dose 10 mg/kg"}, "[14]": {"target": "Potassium voltage-gated channel subfamily KQT member 2 (Mus musculus) (UniProt Q9Z351)", "assay": "Induction of mouse KCNQ2 expressed in HEK293 cells at -40 mV holding potential by whole-cell patch clamp assay relative to retigabine", "format": "cell-based"}}, "note": "The source made the active and inactive calls."}
{"smiles": "NCC1(CC(=O)O)CCCCC1", "values": [{"measurement": "Activity", "setting": "Rattus norvegicus [1]", "result": "Active"}, {"measurement": "Activity", "setting": "Rattus norvegicus [2]", "result": "inactive"}, {"measurement": "Activity", "setting": "Rattus norvegicus [3]", "result": "Active"}]}
{"smiles": "C[C@H](NC(=O)/C=C/c1ccccc1)c1cccc(N2CCOCC2)c1", "values": [{"measurement": "Ratio", "setting": "[4]", "result": 1.4}]}
{"smiles": "C[C@@H](NC(=O)/C=C/c1ccccc1F)c1cccc(Oc2cccnc2)c1", "values": [{"measurement": "EC50", "setting": "[5]", "result": "> 10000", "unit": "nM"}]}
{"smiles": "C[C@H](NC(=O)/C=C/c1ccccc1F)c1cccc(Oc2cccnc2)c1", "values": [{"measurement": "Activity", "setting": "Rattus norvegicus [6]", "result": "Non-toxic"}, {"measurement": "Activity", "setting": "Rattus norvegicus [7]", "result": "Active"}, {"measurement": "Activity", "setting": "Rattus norvegicus [8]", "result": "Active"}, {"measurement": "Time", "setting": "Rattus norvegicus [9]", "result": 15, "unit": "min"}, {"measurement": "concentration at 1 h", "setting": "[10]", "result": 560, "unit": "nM"}, {"measurement": "concentration at 0.25 h", "setting": "[11]", "result": 2000, "unit": "nM"}, {"measurement": "Activity", "setting": "Rattus norvegicus [12]", "result": "inactive"}, {"measurement": "Activity", "setting": "Rattus norvegicus [13]", "result": "Active"}, {"measurement": "Efficacy", "setting": "[14]", "result": 38, "unit": "%"}, {"measurement": "Ratio", "setting": "[4]", "result": 2.2}, {"measurement": "EC50", "setting": "[5]", "result": 2.4, "unit": "nM"}]}
{"smiles": "C[C@@H](NC(=O)/C=C/c1cc(F)ccc1F)c1cccc(Oc2ccncc2)c1", "values": [{"measurement": "EC50", "setting": "[5]", "result": "> 10000", "unit": "nM"}]}
{"smiles": "C[C@H](NC(=O)/C=C/c1ccccc1F)c1ccc2c(c1)N(CC1CC1)CCO2", "values": [{"measurement": "Ratio", "setting": "[4]", "result": 1.8}]}
{"smiles": "CCOC(=O)Nc1ccc(NCc2ccc(F)cc2)cc1N", "values": [{"measurement": "Ratio", "setting": "[4]", "result": 1.6}]}
{"smiles": "C[C@H](NC(=O)/C=C/c1cc(F)ccc1F)c1cccc(Oc2ccncc2)c1", "values": [{"measurement": "concentration at 1 h", "setting": "[10]", "result": 42, "unit": "nM"}, {"measurement": "concentration at 0.25 h", "setting": "[11]", "result": 160, "unit": "nM"}, {"measurement": "Activity", "setting": "Rattus norvegicus [13]", "result": "Active"}, {"measurement": "Ratio", "setting": "[4]", "result": 2.9}, {"measurement": "EC50", "setting": "[5]", "result": 0.9, "unit": "nM"}]}
{"smiles": "C[C@H](NC(=O)/C=C/c1ccccc1Cl)c1ccc2c(c1)OCO2", "values": [{"measurement": "Ratio", "setting": "[4]", "result": 1.1}]}
{"smiles": "C[C@H](NC(=O)/C=C/c1ccccc1F)c1cccc(-c2ccc(F)nc2)c1", "values": [{"measurement": "Ratio", "setting": "[4]", "result": 0.85}]}
